Measurements as given in patent US20240382474A1, “ENPP1 MODULATORS AND USES THEREOF” (Vir Biotechnology, Inc., priority 2021, published 2024).
pIC50: −log10 of the molar value.

These molecules were tested against T1, human ENPP1 enzymatic domain (Homo sapiens, UniProt P22413) (assay: ENPP1 Enzymatic Inhibition Assay (2′3′-cGAMP substrate, AMP-Glo luminescence)). Settings: 1 nM ENPP1, 20 uM 2′3′-cGAMP, 30 minutes at 37° C.
T1 construct: recombinant protein containing the human ENPP1 enzymatic domain; purchased Viva Biotech
T1 sequence (P22413 191-591 limits assumed): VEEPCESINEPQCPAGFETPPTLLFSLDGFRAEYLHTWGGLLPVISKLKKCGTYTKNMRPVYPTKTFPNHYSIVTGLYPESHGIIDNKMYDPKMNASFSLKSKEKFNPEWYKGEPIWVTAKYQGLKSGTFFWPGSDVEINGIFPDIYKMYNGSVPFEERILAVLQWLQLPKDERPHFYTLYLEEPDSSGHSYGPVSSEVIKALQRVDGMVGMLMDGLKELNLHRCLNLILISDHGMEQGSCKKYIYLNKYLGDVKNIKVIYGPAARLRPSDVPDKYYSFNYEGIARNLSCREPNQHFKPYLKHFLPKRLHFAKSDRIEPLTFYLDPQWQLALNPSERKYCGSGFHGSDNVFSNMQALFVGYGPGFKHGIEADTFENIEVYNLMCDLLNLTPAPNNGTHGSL
Assay type: biochemical
Protocol: The inhibition of ENPP1's phosphodiesterase activity were tested in a purified enzymatic assay using 2′3′-cyclic GAMP as a substrate which allowed for the release of cleaved AMP to be monitored using a luminescent assay.
Putative inhibitors were diluted in assay buffer (50 mM Tris pH 8.0, 250 mM NaCl, 0.5 mM CaCl2), 1 uM ZnCl2, 1% DMSO) and pre-incubated for 15 minutes at 37° C. with recombinant protein containing the human ENPP1 enzymatic domain (Viva Biotech). The enzymatic reaction was initiated upon addition of the 2′3′-cGAMP substrate. The final reaction concentrations were 1 nM ENPP1 and 20 uM 2′3′-cGAMP substrate in a 25 uL volume. Inhibitor concentrations ranged from 10 uM to 0.056 nM. The reaction was incubated for 30 minutes at 37° C.
After reacting for 30 minutes, the amount of AMP generated from the cleavage of 2′3′-cGAMP was determined using the Promega AMP-Glo method according to the manufacturer's protocol. First, AMP-Glo reagent 1 was added and incubated with the reaction mix for 1 hour at room temperature. Second, AMP Detection solution was added and the mixture was incubated for an additional hour. The luminescence of the mixture was read on a Perkin Elmer Ensight plate reader.
The maximum and minimum levels of ENPP1 activity were established using no inhibitor and no enzyme controls, respectively. The activity observed using ENPP1 inhibitors was quantified as the percent of activity relative to these controls. IC50 values were calculated using CDD Vault by fitting a sigmoidal variable slope nonlinear regression model to the data.

SMILES | pIC50
COc1cccc2c(Nc3ccc([S@](=N)(=O)NCCO)cc3)ccnc12 [Compound 57, (R)-N-(2-hydroxyethyl)-4-((8-methoxyquinolin-4-yl)amino)benzenesulfonimidamide] | < 7.00
COc1cccc2c(Nc3ccc([S@@](=N)(=O)NCCO)cc3)ccnc12 [Compound 58, (S)-N-(2-hydroxyethyl)-4-((8-methoxyquinolin-4-yl)amino)benzenesulfonimidamide] | > 8.00
COc1cccc2c(Nc3ccc([S@](=N)(=O)NC[C@@H](C)O)cc3)ncnc12 [Compound 61, (R)-N-((R)-2-hydroxypropyl)-4-((8-methoxyquinazolin-4-yl)amino)benzenesulfonimidamide] | < 7.00
COc1cccc2c(Nc3ccc([S@@](=N)(=O)NC[C@@H](C)O)cc3)ncnc12 [Compound 62, (S)-N-((R)-2-hydroxypropyl)-4-((8-methoxyquinazolin-4-yl)amino)benzenesulfonimidamide] | 7.00 to 8.00
COc1ccc2c(Nc3ccc([S@](=N)(=O)NC[C@@H](C)O)cc3)ncnc2c1 [Compound 63, (R)-N-((R)-2-hydroxypropyl)-4-((7-methoxyquinazolin-4-yl)amino)benzenesulfonimidamide] | 7.00 to 8.00
COc1cc2nccc(Nc3ccc([S@@](=N)(=O)NC4CC4)cc3)c2cc1F [Compound 67, (S)-N-cyclopropyl-4-((6-fluoro-7-methoxyquinolin-4-yl)amino)benzenesulfonimidamide] | > 8.00
COc1cc2nccc(Nc3ccc([S@@](=N)(=O)NC[C@@H](C)O)cc3)c2cc1F [Compound 68, (S)-4-((6-fluoro-7-methoxyquinolin-4-yl)amino)-N-((R)-2-hydroxypropyl)benzenesulfonimidamide] | > 8.00

Further lines, results first:

pIC50 | SMILES
> 8.00 | COc1ccc2c(Nc3ccc([S@@](=N)(=O)NCCO)cc3)ccnc2c1 [Compound 54, (S)-N-(2-hydroxyethyl)-4-((7-methoxyquinolin-4-yl)amino)benzenesulfonimidamide]
> 8.00 | COc1ccc2c(Nc3ccc([S@](=N)(=O)NC[C@@H](C)O)cc3)ccnc2c1 [Compound 55, (R)-N-((R)-2-hydroxypropyl)-4-((7-methoxyquinolin-4-yl)amino)benzenesulfonimidamide]
> 8.00 | COc1ccc2c(Nc3ccc([S@](=N)(=O)NC[C@H](O)C(C)(C)C)cc3)ccnc2c1 [Compound 59, (R)-N-((R)-2-hydroxy-3,3-dimethylbutyl)-4-((7-methoxyquinolin-4-yl)amino)benzenesulfonimidamide]
> 8.00 | COc1ccc2c(Nc3ccc([S@@](=N)(=O)NC[C@H](O)C(C)(C)C)cc3)ccnc2c1 [Compound 60, (S)-N-((R)-2-hydroxy-3,3-dimethylbutyl)-4-((7-methoxyquinolin-4-yl)amino)benzenesulfonimidamide]
> 8.00 | COc1ccc2c(Nc3ccc([S@@](=N)(=O)NC[C@@H](C)O)cc3)ncnc2c1 [Compound 64, (S)-N-((R)-2-hydroxypropyl)-4-((7-methoxyquinazolin-4-yl)amino)benzenesulfonimidamide]
> 8.00 | COc1ccc2c(Nc3ccc([S@@](=N)(=O)NC[C@@H](C)OC(C)=O)cc3)ccnc2c1 [Compound 69, (R)-1-(((S)-4-((7-methoxyquinolin-4-yl)amino)phenyl)sulfonoamidimidamido)propan-2-yl acetate]
